# Results taken from US20260337162A1, “TRYPTAMINE COMPOUNDS, COMPOSITIONS, AND METHODS OF USE” (priority 2022, published 2026).
# Assays:
# 5-HT2A receptor [1] = assay: Head-twitch response (HTR) and behavioral observation in mice; assay type: in vivo, adult, male C57BL/6J mice; conditions: 10 mg/kg PO, mice
# Method: The HTR assay was performed in adult, male C57BL/6J mice, procured from the Jackson Laboratory (Bar Harbor, Maine), as previously described (Canal, C. E., and Morgan, D., 2012, Head-twitch response in rodents induced by the hallucinogen 2,5-dimethoxy-4-iodoamphetamine: a comprehensive history, a re-evaluation of mechanisms, and its utility as a model, Drug Test Anal 4, 556-576; Saraf, T. S., Felsing, D. E., Armstrong, J. L., Booth, R. G., and Canal, C. E., 2021, Evaluation of lorcaserin as an anticonvulsant in juvenile Fmr1 knockout mice, Epilepsy Res 175, 106677). Mice were housed in standard laboratory cages with ad libitum access to food and water, and were acclimated to the vivarium for at least one week prior to testing in a procedure room. On the day of testing, mice were acclimated to the procedure room in their home cages for ≥60 min before administration of test compounds. Test articles were administered at 10 mg/kg by oral gavage and mice were placed immediately thereafter in a clear, polycarbonate box (46×20×20 cm), and HTRs were counted for 30 consecutive minutes, using hand-held tally counters, by two trained observers who were blind to treatment.
# [2] = humans (TIHKAL; Erowid); cited from earlier work
# 5-HT2A receptor [3] = biological target: T1, 5-HT2A receptor (Homo sapiens, UniProt P28223); assay: Competition binding assay with [125I]DOI, 5-HT2A receptor; conditions: [125I]DOI radioligand; read-out: 5-HT2A affinity
# T1 construct: expressed in transfected cells
# T1 sequence (P28223 whole entry): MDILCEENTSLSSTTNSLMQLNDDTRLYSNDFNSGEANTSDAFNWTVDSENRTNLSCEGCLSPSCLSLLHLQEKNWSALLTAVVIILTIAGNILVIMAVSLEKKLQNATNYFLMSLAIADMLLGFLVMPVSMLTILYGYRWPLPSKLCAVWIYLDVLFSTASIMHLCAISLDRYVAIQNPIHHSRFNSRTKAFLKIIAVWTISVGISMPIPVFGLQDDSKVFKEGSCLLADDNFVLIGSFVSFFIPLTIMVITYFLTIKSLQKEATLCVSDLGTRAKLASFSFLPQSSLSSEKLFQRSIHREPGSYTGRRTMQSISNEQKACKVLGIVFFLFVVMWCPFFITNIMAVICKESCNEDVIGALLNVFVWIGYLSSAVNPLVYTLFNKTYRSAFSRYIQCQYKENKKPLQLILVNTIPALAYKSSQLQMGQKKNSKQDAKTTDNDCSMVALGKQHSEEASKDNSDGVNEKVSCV
# Method: (§1) Binding affinity (Ki) and functional potency and efficacy (EC50 and EMAX) values of the compounds were measured.
# 5-HT2A receptor [4] = biological target: T1, 5-HT2A receptor; assay: 5-HT2A receptor functional screening assay (efficacy relative to maximal 5-HT response); assay type: cell-based; conditions: for activation at 0.5 µM: 500 nM
# Method: (§2) 5-HT2 receptor-mediated Gq stimulation [phosphoinositide hydrolysis leading to the production of inositol phosphate 1 (IP1)]-canonical signaling pathways-were measured as previously described (Canal, C. E., Cordova-Sintjago, T., Liu, Y., Kim, M. S., Morgan, D., and Booth, R. G., 2013, Molecular pharmacology and ligand docking studies reveal a single amino acid difference between mouse and human serotonin 5-HT2A receptors that impacts behavioral translation of novel 4-phenyl-2-dimethylaminotetralin ligands, J Pharmacol Exp Ther 347, 705-716; Canal, C. E., Morgan, D., Felsing, D., Kondabolu, K., Rowland, N. E., Robertson, K. L., Sakhuja, R., and Booth, R. G., 2014, A Novel Aminotetralin-Type Serotonin (5-HT)(2C) Receptor —Specific Agonist and 5-HT2A Competitive Antagonist/5-HT2B Inverse Agonist with Preclinical Efficacy for Psychoses, J Pharm Exp Ther 349, 533), for example, with a homogeneous time-resolved fluorescence (HTRF) capable microplate reader (e.g., Mithras LB 940, Berthold) using commercially-available kits employing Fluorescence Resonance Energy Transfer (FRET) technology (e.g., IP-One HTRF (Cisbio) kits). Briefly, CHO-K1 or HEK293 cells expressing a single serotonergic 5-HT2 receptor subtype were incubated with test compounds and 5-HT or DOI (positive control) in stimulation buffer containing LiCl. After equilibration, the reaction was terminated with the donor and acceptor fluorescent conjugates in lysis buffer, and FRET was measured with a microplate reader (Berthold Mithras). Data were fit to non-linear curves to calculate potencies (e.g., EC50) and efficacies (e.g., EMAX), relative to positive controls (e.g., serotonin).
# in vitro = in vitro ADME, Male Sprague-Dawley rat; conditions: rat liver microsomes 0.5 mg/mL, 1 mM NADPH, test compound 1 μM, pH 7.4, 37° C.; read-out: RLM, t1/2
# Method: Male Sprague-Dawley rat liver microsomes were purchased from XenoTech. The reaction mixture, minus NADPH, was prepared as described below. The test compound was added into the reaction mixture at a final concentration of 1 μM. The control compound, testosterone, was run simultaneously with the test compound in a separate reaction. The reaction mixture (without cofactor) was equilibrated in a shaking water bath at 37° C. for 5 minutes. The reaction was initiated by the addition of the cofactor, and the mixture was incubated in a shaking water bath at 37° C. Aliquots (150 μL) were withdrawn at 0, 5, 10, 20, 30, 60, and 120 minutes. Test compound and testosterone samples were immediately combined with 150 μL of ice-cold acetonitrile (ACN) containing 0.1% formic acid and internal standard to terminate the reaction. The samples were then mixed and centrifuged to precipitate proteins. All samples were assayed by LC-MS/MS using electrospray ionization. The peak area response ratio (PARR) of analyte to internal standard at each time point was compared to the PARR at time 0 to determine the percent remaining at each time point. Half-lives were calculated using GraphPad software, fitting to a single-phase exponential decay equation.
# [5] = biological target: T2, human serotonin 5-HT2A receptor (Homo sapiens, UniProt P28223); assay: Radioligand ([3H]LSD) competition binding, 5-HT2A receptor; conditions: in words; up to 10 μM for partial competition
# T2 construct: host or cells: HEK293 (ATCC CRL-1573)
# T2 sequence (P28223 whole entry): as above
# Method: as §1
# Radioligand competition binding was performed as previously described (Saraf, T. S., Felsing, D. E., Armstrong, J. L., Booth, R. G., and Canal, C. E., 2021, Evaluation of lorcaserin as an anticonvulsant in juvenile Fmr1 knockout mice, Epilepsy Res 175, 106677), with minor modifications, using human cloned 5-HT2A receptors. Plasmids encoding human serotonin 5-HT2A receptor cDNA were procured from the cDNA Resource Center. Human embryonic kidney cells (HEK293, ATCC CRL-1573) were grown in a cell incubator in 100 mm dishes with antibiotic-free Dulbecco's modified Eagle's medium containing 10% fetal bovine serum. Cells were transfected at ~85% confluency with 5-15 μg cDNA using TransIT-2020 reagent (Mirus Bio, Madison, Wisconsin). After approximately 48 hours, cell membrane was collected via centrifugation. For all experiments, serotonin (5-HT) hydrochloride was used as a positive control, and mianserin hydrochloride (10 μM) was used to define non-specific binding. Each cell membrane homogenate expressing 5-HT2A receptors was incubated at room temperature in 96-well plates with [^3H] […] Following equilibration, each sample was filtered rapidly under vacuum through fiberglass filters presoaked in a buffer and washed by vacuum several times with an ice-cold buffer. Filters were soaked with scintillation fluid and counts per minute were detected using photodetectors (Microbeta Scintillation Counter). […] Data shown are the results from all experiments combined. As is known, G protein-coupled receptors, including the 5-HT2A receptor, can exist in multiple conformations, and ligands, typically agonist ligands, have unique affinities for these conformations of the receptor (Kenakin, T. Theoretical Aspects of GPCR-Ligand Complex Pharmacology, Chem. Rev. 2017, 117, 1, 4-20). […] However, for simplicity reasons, affinity of these compounds are reported herein as fitted to the single-site model. The data point for −10 samples is total specific binding (no compound present), and −4 was interpolated to complete the binding curves to 0 specific binding.
# recombinant human MAO-A = recombinant human MAO-A (Homo sapiens, UniProt P21397); assay: in vitro; assay type: in vitro ADME; conditions: role: substrate, hrMAO-A 0.02 mg/mL, test compound 1 μM, pH 7.4, 37° C.
# Chain of recombinant human MAO-A (P21397 whole entry): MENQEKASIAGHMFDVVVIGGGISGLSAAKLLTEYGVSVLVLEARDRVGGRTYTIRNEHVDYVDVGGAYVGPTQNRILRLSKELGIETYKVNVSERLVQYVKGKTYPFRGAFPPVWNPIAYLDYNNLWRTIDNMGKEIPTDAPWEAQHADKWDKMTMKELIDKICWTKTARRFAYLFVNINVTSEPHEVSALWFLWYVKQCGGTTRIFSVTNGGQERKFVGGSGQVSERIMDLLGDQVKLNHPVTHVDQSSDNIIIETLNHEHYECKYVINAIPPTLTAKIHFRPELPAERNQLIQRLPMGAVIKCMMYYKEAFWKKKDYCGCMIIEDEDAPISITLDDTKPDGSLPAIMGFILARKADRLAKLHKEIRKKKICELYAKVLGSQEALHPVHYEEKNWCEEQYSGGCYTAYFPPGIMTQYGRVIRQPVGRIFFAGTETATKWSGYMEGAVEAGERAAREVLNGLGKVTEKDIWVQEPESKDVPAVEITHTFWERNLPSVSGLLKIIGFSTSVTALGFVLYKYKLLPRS
# Method: hrMAO-A and MAO control were purchased from XenoTech. The reaction mixture was prepared as described below. The test compound was added into the reaction mixture at a final concentration of 1 μM. The positive control, kynuramine (25 μM), was run simultaneously with the test compound in a separate reaction. The reaction mixture (without test compounds or kynuramine) was equilibrated in a shaking water bath at 37° C. for 5 minutes. The reaction was initiated by the addition of the test compound or kynuramine, and the mixture was incubated in a shaking water bath at 37° C. Aliquots (150 μL) of the test compound reaction mixture were withdrawn at 0, 5, 10, 20, 30,60, and 120 minutes. Aliquots (150 μL) of the positive control reaction mixture were withdrawn at 0 and 30 minutes. Test compound and kynuramine samples were immediately combined with 150 AL of ice-cold 100% acetonitrile containing 0.1% formic acid and internal standard (0.2 μM metoprolol) to terminate the reaction. The samples were then mixed and centrifuged to precipitate proteins. All samples were assayed by LC-MS/MS. The peak area response ratio (PARR) of analyte to internal standard at each time point was compared to the PARR at time 0 to determine the percent remaining at each time point. Half-lives were calculated using GraphPad software, fitting to a single-phase exponential decay equation.
# 5-HT2A receptor [6] = biological target: T1, 5-HT2A receptor; assay: Dose-response 5-HT2A functional assay (IP1 formation); assay type: cell-based; conditions: for 5-HT2A functional activity (in words): dose-response
# Method: (§3) FIG. 27 is a graph showing the dose-response 5-HT2A functional assay results as a percent of control agonist response for compound II-2; tested in duplicate at the indicated concentrations and the EC50 values were determined by non-linear regression analysis of the concentration-response curves generated with mean replicate values using Hill equation curve fitting;
# as §3, with “28” for “27”, “compounds III-2 and IV-21;” for “compound II-2;”, “fitting; and” for “fitting;”
# as §2
# (§4) The results from tests of 5-HT2A functional activities of this series of compounds were also unexpected in the context of the unusual results observed from competition binding assays. […] Complete dose-response 5-HT2A and 5HT2B functional assays (measuring IP1 formation) were conducted for III-2 and IV-21 by a second, independent laboratory.
# 5-HT2B receptor = 5-HT2B receptor (Homo sapiens, UniProt P41595); assay: Dose-response 5-HT2B functional assay (IP1 formation); assay type: cell-based; conditions: for EC50 / 5-HT2B functional activity (in words): IP1 formation; for 5-HT2B functional activity (in words): dose-response; for Emax: percent of control agonist response
# Chain of 5-HT2B receptor (P41595 whole entry): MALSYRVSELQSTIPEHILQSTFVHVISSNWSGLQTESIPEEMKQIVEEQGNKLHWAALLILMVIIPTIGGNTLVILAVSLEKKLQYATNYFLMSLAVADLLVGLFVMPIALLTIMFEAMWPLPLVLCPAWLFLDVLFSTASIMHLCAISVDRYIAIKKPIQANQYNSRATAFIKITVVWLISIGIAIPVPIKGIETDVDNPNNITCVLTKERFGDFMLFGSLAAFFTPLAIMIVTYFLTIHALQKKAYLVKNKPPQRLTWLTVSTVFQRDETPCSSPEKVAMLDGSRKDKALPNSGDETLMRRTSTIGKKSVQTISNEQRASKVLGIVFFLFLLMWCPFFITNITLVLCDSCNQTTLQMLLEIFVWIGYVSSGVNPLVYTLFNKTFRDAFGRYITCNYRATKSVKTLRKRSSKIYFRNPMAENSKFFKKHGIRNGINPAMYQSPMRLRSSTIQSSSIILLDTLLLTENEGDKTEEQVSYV
# Method: as §3, with “29” for “27”, “5-HT2B” for “5-HT2A”, “compounds III-2 and IV-21;” for “compound II-2;”, “fitting.” for “fitting;”
# as §2, §4
structure (smiles),measurement,setting,value
"CCN(CC)CCc1c[nH]c2ccccc12 [DET, N,N-diethyltryptamine, reference compound]",elicitation of HTR (in words),5-HT2A receptor [1],inactive at eliciting the HTR
same,qualitative behavioral changes,5-HT2A receptor [1],"accelerated breathing, hyperlocomotion, hiccup responses, and chewing movements of mouth"
same,oral activity in humans,[2],active orally in humans
"CN(CCc1c[nH]c2ccccc12)[S+]([O-])C(F)(F)F (centres unmarked) [II-15, N-(2-(1H-indol-3-yl)ethyl)-1,1,1-trifluoro-N-methylmethanesulfinamide]",Ki,5-HT2A receptor [3],> 3000 nM
same,activation at 0.5 µM,5-HT2A receptor [4],-24.1%
same,activation at 50 µM,5-HT2A receptor [4],-36.9%
same,5-HT2A functional activity (in words),"5-HT2A receptor [4]; in vitro screening, II-15: both 500 nM and 50 μM",inverse agonist efficacy
"CN(CCc1c[nH]c2ccccc12)CC(F)(F)F [II-19, N-(2-(1H-indol-3-yl)ethyl)-2,2,2-trifluoro-N-methylethan-1-amine]",half-life at 1 µM,in vitro,3.95 min
same,competition for [3H]LSD-labeled 5-HT2A receptors,[5],only partial competition
"FC(F)(F)CNCCc1c[nH]c2ccccc12 [II-20, N-(2-(1H-indol-3-yl)ethyl)-2,2,2-trifluoroethan-1-amine]",half-life at 1 µM,in vitro,7.63 min
same,half-life at 1 µM,recombinant human MAO-A,> 120 min
same,competition for [3H]LSD-labeled 5-HT2A receptors,[5],only partial competition
"Oc1cccc2[nH]cc(CCN(CCC(F)F)CCC(F)F)c12 [III-2, 3-(2-(bis(3,3-difluoropropyl)amino)ethyl)-1H-indol-4-ol]",activation at 0.5 µM,5-HT2A receptor [4],58.3%
same,activation at 50 µM,5-HT2A receptor [4],> 50%
same,EC50,5-HT2A receptor [6]; IP1 formation,383 nM
same,5-HT2A functional activity (in words),5-HT2A receptor [6]; IP1 formation,"low potency, full agonist"
same,EC50,5-HT2B receptor,96 nM
same,5-HT2B functional activity (in words),5-HT2B receptor,partial agonist
same,Emax,5-HT2B receptor,65%
"CN(CCc1c[nH]c2cccc(O)c12)CC(F)(F)F [III-13, 3-(2-(methyl (2,2,2-trifluoroethyl)amino)ethyl)-1H-indol-4-ol]",half-life at 1 µM,in vitro,4.5 min
"CN(C)CCc1c[nH]c2ccc(OC(F)(F)F)cc12 [IV-3, N,N-dimethyl-2-(5-(trifluoromethoxy)-1H-indol-3-yl) ethan-1-amine]",half-life at 1 µM,in vitro,13.1 min
"COc1ccc2[nH]cc(CCN(C)CCC(F)(F)F)c2c1 [IV-21, 3,3,3-trifluoro-N-(2-(5-methoxy-1H-indol-3-yl)ethyl)-N-methylpropan-1-amine]",activation at 0.5 µM,5-HT2A receptor [4],29.5%
same,EC50,5-HT2A receptor [6]; IP1 formation,> 3000 nM
same,EC50,5-HT2A receptor [6]; dose-response curve had not plateaued at 3 μM,> 3000 nM
same,5-HT2A functional activity (in words),5-HT2A receptor [6]; IP1 formation,"low potency, EC50>3 μM, agonist"
same,EC50,5-HT2B receptor,394 nM
same,5-HT2B functional activity (in words),5-HT2B receptor,partial agonist
same,Emax,5-HT2B receptor,62%
"COc1ccc2[nH]cc(CCN(C)CC(F)(F)F)c2c1 [IV-40, 2,2,2-trifluoro-N-(2-(5-methoxy-1H-indol-3-yl)ethyl)-N-methylethan-1-amine]",half-life at 1 µM,in vitro,4.55 min
